Experimental data: patent US6887894B2, “Use of lipoic acid for improving the bioavailability of mineral salts” (BASF Aktiengesellschaft, priority 2000, dated 2005)
Marks after values point to notes of the source that are not given here.

Columns and labels:
Format in all cases: in vivo
[1] = Study 1/Study 2: bioavailability of Zn lipoate and ZnSO4 in rats (Example 4, Comparison Example 1); conditions: diet with 0.4% NaPA, high dose 20 mg Zn/kg of feed, 28 days
Description: Male Albino rats (Wistar) of an initial weight of 40 g were used. The animals were kept during each 28-day experimental period at a room temperature of 22° C., a relative humidity of approximately 55% and in a 12-hour light-dark cycle. The rats were housed individually in Makrolon cages with stainless steel bottoms which permitted controlled feed intake and quantitative collection of feces and urine. The feed was provided once a day at 8^00. The live mass of the rats was determined weekly, feces and urine were collected every day at 10^00 and 17^00. At the end of the experiment, the rats were decapitated after chloroform anesthesia. • 4.2 Description of the diets and experimental design
6 rats are used per experimental group. The mealy diets were administered ad lib. […] The control group (group 1) received the PA-free base diet.
The amounts of feces and urine produced separately in the metabolic cages are collected quantitatively every day and stored at −22° C. To avoid any losses of N in the urine collection vessels, 1 ml of 20% strength HCl (Suprapur) is added to each of the vessels daily. For further analysis, the sample material is freeze-dried for 48 h. • 4.3.2 Organ and tissue samples
The right femur, liver and testes are removed immediately after decapitation and complete exsanguination of the animals and the fresh mass is determined. The samples are sealed in plastic film and stored at −22° C. until further analysis. • 4.3.3 Blood
The rats are decapitated at the end of the experiment after complete narcosis with chloroform and the blood collected in heparinized plastic tubes. 40 I.U. of heparin sodium are introduced per ml of blood. […]
Zinc is determined by means of atomic absorption spectrophotometry (AAS) in an acetylene flame. • 4.5 Diagnosis of zinc status • 4.5.1 Determination of the plasma zinc concentration
The plasma zinc concentration is measured directly in the flame by means of AAS (Philips, PIJ 9400). […]
The enzyme activity is measured kinetically on a semimicroscale at a wavelength of 405 nm and 25° C. using a UV spectrophotometer. […]

[2] = Study 3: zootechnical parameters (feed intake, live weight) of growing rats; conditions: for LW Gain: 28 days; for Live weight d0: initial weight
Description: (§1) 36 male Wistar albino rats (Harlan Winkelmann, Borchen) having an initial weight of 47.0±2.63 g were randomly divided into 6 groups each of 6 animals and fed the diets specified in Table 7 (experimental design) and Section 5.2 over a period of 28 days. The animals were kept individually in Makrolon cages on stainless grids under standard conditions (22° C., 55% relative humidity, 12 hour light/dark rhythm). Feed and deionized drinking water were available to the experimental animals ad libitum. During the 2nd and 3rd experimental week (metabolism phase) feces were collected quantitatively. After completion of the experimental phase (day 28), the animals were decapitated under CO2— anesthesia, exsanguinated and the tissue to be analyzed was removed. Groups Ib, IIb and IIIb here are Example 5, while Groups Ia, IIa and IIIa are Comparison Example 2.
Parameters used to estimate Zn availability were the zootechnical parameters feed intake, live weight development and live weight increase, apparent Zn absorption, alkaline phosphatase activity in plasma, plasma and femur Zn concentration and metallothionin concentration in liver tissue. • 5.2 Experimental diets
The experimental animals were fed semisynthetic diets based on high-purity components (corn starch, egg albumin protein, sucrose, soybean oil and cellulose) over a period of 28 days (see Table 8 for composition of the base diet), the experimental diets differing with respect to the type of zinc compound supplemented, the absolute Zn concentration and the phytic acid content (0.4% PA from NaPA, Sigma-Aldrich, Steinheim) (see Table 7).
Zn supplements used were Zn ((R)-α-Lipoat)2(H2O)2 from Example 1 (Example 5) and Zn sulfate (ZnSO4.7 H2O analytical grade, Merck, Darmstadt) (Comparison Example 2). The Zn concentrations of the experimental diets Ia-IIb were set at a level of 10 mg/kg of diet estimated to be marginal for growing rats, in order to enable investigation of the availability of the Zn supplements under test in the suboptimun supply range.

[3] = Study 3: Zn intake, fecal excretion and apparent absorption of zinc; conditions: rats
Description: as §1
During the two-week metabolism phase, the rat feces were collected daily, adherent feed residues and other impurities were removed and the samples were stored at −20° C. At the end of the metabolism period the fecal weight was determined quantitatively and feces were then freeze-dried under vacuum over a period of 48 h (Gamma 1-20, Christ, Osterode). The dried samples were finely around using a domestic grinder (Moulinette electronic 89902) and stored at ambient temperature in PE bottles.
A sample aliquot of 1.5 g or the freeze-dried and ground fecal samples was dried for 24 h at 105° C. to remove residual water and then ashed in a muffle furnace at 450° C. for 21 h. The ash residue was dissolved by acid addition and then analyzed quantitatively. The Zn concentration in the fecal samples was determined by flame-AAS (Philips, PU 9400, Kassel). • 5.3.4 Diagnosis of Zn status
(§2) Zn absorption was calculated, without taking into account endogenous level as a difference between element […] and fecal excretion (=apparent absorption). Plasma Zn concentration was determined by AAS (Philips, PU 9400, Kassel). The samples were diluted with 0.1 M HCl in a ratio of 1:20 (v/v). The activity of the Zn metalloenzyme alkaline phosphatase (AP) (E.C. 3.1.3.1) wan assayed using the individual chemicals diethanolamine buffer and p-nitrophenyl phosphate according to the recommendations of the […] FÜR […] CHIMIE [German Clinical Chemistry Society] ([…] FÜR […] CHEMIE (1972). Standardmethode zur Bestimmung der Aktivität der alkalischen Phosphatase (AP) [Standard Method for Determining Alkaliur Phosphatase (AP) Activity]. Z. klin. Chem u. klin. Biochemie. 10, 191). • 5.3.5 Metallothionin in liver tissue

[4] = Study 3: Zn concentration in the femur; conditions: rats, day 28
Description: as §1
The ash solutions were prepared by the principle of wet ashing. The sample material was admixed with 10 ml of 65% strength HNO3 (Merck, Suprapur) and then boiled under a reflux condenser in a digestion apparatus (Gerhardt SMA-20, Bonn). This oxidatively degraded the organic matrix and completely mineralized the test material. The Zn concentration was determined in the ash solutions by flame-AAS (Philips, PU 9400, Kassel). • 5.3.3 Analysis of the fecal samples

[5] = Study 3: plasma Zn concentration; conditions: rats, day 28
Description: as §1
The samples were diluted with 0.1 M HCl in a ratio of 1:20 (v/v). […] CHIMIE [German Clinical Chemistry Society]

[6] = system: alkaline phosphatase (AP) (E.C. 3.1.3.1); test: Study 3: alkaline phosphatase activity in plasma; conditions: rats, day 28
Description: as §1, §2

metallothionin = test: Study 3: metallothionin in liver tissue; conditions: rats, day 28
Description: as §1
Total MT concentration in liver tissue was determined using the cadmium-binding method of EATON and TOAL (EATON, D. L., TOAL, B. F. (1982): Evaluation of the cadmium/hemoglobin affinity assay for the rapid determination of metallothionein in biological tissues. Toxicol Appl. Pharmacol. 66, 134-142) in a modification tested at the Giessen Institute (LEUNERT, V. (1994): Einfluβ von Zink sowie fetalem Kälberserum, bovinem Serumalbumin und calciummobilisierenden Rezeptoragonlsten auf Metallothionein in primär kultivierten Rattenhepatocyten [Effect of zinc and fecal calf serum, vine serum albumin and calcium-immobilizing receptor agonists on metallothionin in primary cultivations of rat hepatocytes]. Inaugural dissertation at the Institut für Tierernahrung und Ernährungse-physiologie [Institute of Animal Nutrition and Nutritional Physiology] of the University of Cicesen, Verlag Shaker, Aachen, PALLAUF et al. 1995). The protein content in liver homogenates war determined using the Lowry-Folin method (DAWSON, R. M. C. ELLIOTT, D C; JONES, K. M. (1986): Data for biochemical research, 3rd ed., Clarendon Press, New York, 543). • 5.3.5. Statistical analysis

[7] = 10 ppm Zn, PA-free diet (group I)
[8] = 20 ppm Zn + 0.4% PA (group III)

Apparent absorption of Zn ([3]; 10 ppm Zn + 0.4% PA (group II)): 43.0 ^a %
Apparent absorption of Zn (absolute) ([3]; 10 ppm Zn + 0.4% PA (group II)): 0.351 ^a mg/14 d
Fecal excretion of Zn ([3]; 10 ppm Zn + 0.4% PA (group II)): 0.484 ^a mg/14 d
Apparent absorption of Zn [3, 7]: 76.4 ^b %
Apparent absorption of Zn (absolute) [3, 7]: 1.35 ^bc mg/14 d
Fecal excretion of Zn [3, 7]: 0.411 ^a mg/14 d
Apparent absorption of Zn [3, 8]: 43.9 ^a %
Apparent absorption of Zn (absolute) [3, 8]: 1.13 ^b mg/14 d
Fecal excretion of Zn [3, 8]: 1.43 ^b mg/14 d
Zn concentration in Femur ([4]; 10 ppm Zn + 0.4% PA (group II)): 36.3 ^a μg/g FW
Zn concentration in Femur [4, 7]: 81.4 ^c μg/g FW
Zn concentration in Femur [4, 8]: 55.4 ^b μg/g FW
Zn concentration in Plasma ([5]; 10 ppm Zn + 0.4% PA (group II)): 0.57 ^a μg/ml
Zn concentration in Plasma [5, 7]: 1.11 ^bc μg/ml
Zn concentration in Plasma [5, 8]: 0.80 ^ac μg/ml
SMILES: O.O.O.O.O.O.O.O=S(=O)([O-])[O-].[Zn+2] [Zn sulfate, ZnSO4.7 H2O]
zinc deficiency symptoms (anorexia, alopecia, depression of growth) [1]: still present
Feed intake Total ([2]; 10 ppm Zn + 0.4% PA (group II)): 166 ^a g/28d
Feed intake d1-d7 ([2]; 10 ppm Zn + 0.4% PA (group II)): 37.4 ^a g
Feed intake d8-d14 ([2]; 10 ppm Zn + 0.4% PA (group II)): 42.3 ^a g
Feed intake d15-d21 ([2]; 10 ppm Zn + 0.4% PA (group II)): 40.5 ^a g
Feed intake d22-d28 ([2]; 10 ppm Zn + 0.4% PA (group II)): 45.3 ^a g
Live weight d7 ([2]; 10 ppm Zn + 0.4% PA (group II)): 62.0^a g
Live weight d14 ([2]; 10 ppm Zn + 0.4% PA (group II)): 84.6^a g
Live weight d21 ([2]; 10 ppm Zn + 0.4% PA (group II)): 94.2^a g
Live weight d28 ([2]; 10 ppm Zn + 0.4% PA (group II)): 106.5^a g
LW Gain ([2]; 10 ppm Zn + 0.4% PA (group II)): 60.7^a g
Live weight d0 ([2]; 10 ppm Zn + 0.4% PA (group II)): 45.8 g
Feed intake Total [2, 7]: 272 ^b g/28d
Feed intake d1-d7 [2, 7]: 40.4 ^ab g
Feed intake d8-d14 [2, 7]: 67.8 ^bc g
Feed intake d15-d21 [2, 7]: 77.5 ^bc g
Feed intake d22-d28 [2, 7]: 86.6 ^b g
Live weight d7 [2, 7]: 58.1^ab g
Live weight d14 [2, 7]: 104.2^ab g
Live weight d21 [2, 7]: 141.3^bc g
Live weight d28 [2, 7]: 175.8^bc g
LW Gain [2, 7]: 128.5^bc g
Live weight d0 [2, 7]: 47.3 x g
Feed intake Total [2, 8]: 253 ^b g/28d
Feed intake d1-d7 [2, 8]: 49.6 ^ab g
Feed intake d8-d14 [2, 8]: 61.0 ^b g
Feed intake d15-d21 [2, 8]: 67.9 ^b g
Feed intake d22-d28 [2, 8]: 74.8 ^b g
Live weight d7 [2, 8]: 68.4^ab g
Live weight d14 [2, 8]: 102.4^ab g
Live weight d21 [2, 8]: 132.3^b g
Live weight d28 [2, 8]: 161.9^b g
LW Gain [2, 8]: 114.7^b g
Live weight d0 [2, 8]: 47.2 g
Alkaline Phosphatase activity in plasma ([6]; 10 ppm Zn + 0.4% PA (group II)): 216 ^a mU/ml Plasma
Alkaline Phosphatase activity in plasma [6, 7]: 383 ^b mU/ml Plasma
Alkaline Phosphatase activity in plasma [6, 8]: 347 ^b mU/ml Plasma
Metallothionin concentration in liver tissue (metallothionin; 10 ppm Zn + 0.4% PA (group II)): 6.36 ng MT/mg Protein
Metallothionin concentration in liver tissue (metallothionin; [7]): 8.08 ng MT/mg Protein
Metallothionin concentration in liver tissue (metallothionin; [8]): 7.58 ng MT/mg Protein
